Measured values taken from patent publication US5028427A, “"Cephalosporin" compounds” (Beecham Group p.l.c., priority 1987, dated 1991).
In brackets after ≈: the same amount, converted by molar mass.

How the values were obtained:
Test in all cases: MIC by serial dilution in nutrient agar
Type in all cases: cell-based
[1] = test system: Pseudomonas aeruginosa NCTC 10662; conditions: NCTC10662, nutrient agar (Oxoid), 10^4 colony forming units, overnight at 37° C.
[2] = test system: Serratia marcescens US32; conditions: Serratia marcescens US 32, nutrient agar (Oxoid), 10^4 colony forming units, overnight at 37° C.
[3] = test system: Enterobacter cloacae P99
[4] = test system: Staphylococcus aureus Oxford; conditions: nutrient agar (Oxoid), 10^4 colony forming units, overnight at 37° C.
[5] = test system: Serratia marcescens HCN 3956; conditions: HCN3956, nutrient agar (Oxoid), 10^4 colony forming units, overnight at 37° C.

Row | SMILES | MIC [1] [mg/L] | MIC [2] [mg/L] | MIC [3] [mg/L] | MIC [4] [mg/L] | MIC [5] [mg/L]
1 | CCN1CCN(C(=O)NC(C(=O)NC2(NC=O)C(=O)N3C(C(=O)[O-])=C(C[n+]4ccccc4)CSC32)c2ccc(O)c(O)c2)C(=O)C1=O [Example 1, 7β-[D-2-(3,4-Dihydroxyphenyl)-2-[(4-ethyl-2,3-dioxopiperazin-1-yl)carbonylamino]acetamido]-7α-formamido-3-(pyridinium)methyl-ceph-3-em-4-carboxylate] | 0.5 (≈ 0.749 µM) | 0.12 (≈ 0.18 µM) | 2 (≈ 3 µM) | 8 (≈ 12 µM) | 2 (≈ 3 µM)
2 | CCN1CCN(C(=O)NC(C(=O)NC2(NC=O)C(=O)N3C(C(=O)[O-])=C(C[n+]4ccccc4)CSC32)c2ccc(OC(C)=O)c(OC(C)=O)c2)C(=O)C1=O [Compound A, 7β-[D-2-(3,4-diacetoxyphenyl)-2-[(4-ethyl-2,3-dioxopiperazin-1-yl)carbonylamino]acetamido]-7α-formamido-3-(pyridinium)methyl-ceph-3-em-4-carboxylate] | 2 (≈ 2.66 µM) | 0.5 (≈ 0.665 µM) | 8 (≈ 10.6 µM) | 16 (≈ 21.3 µM) | 16 (≈ 21.3 µM)
